Reference: patent US20070224150A1, “Growth factor for hair and skin treatment” (priority 2005, published 2007)

Tested on: HACAT cells
Experiment: HACAT cell proliferation, MTT bioassay
Type: cell-based
Description: HACAT cells were seeded in 96 well plates and cultured for one day in DMEM medium with 10% FBS, then subjected to starvation for one day. After starvation, the cells were treated for three days with various dosages of EGF in serum free media. […] The ED50 was approximately 300 pg/ml.
HACAT cells were seeded in 96 well plates and cultured for one day in DMEM medium with 10% FBS, then subjected to starvation for one day. After starvation, the cells were treated for three days with various dosages of Anti-Aging Cytokine Complex AC (“AC ”), i.e. a mixture comprising EGF, bFGF, IGF-1 and TRX, in serum free media.
FIG. 3A depicts control cells, FIG. 3B cells treated with 0.5 ng/ml EGF, and FIG. 3C cells treated with 0.5 ng/ml of AC.

Q: For “EGF: epidermal growth factor, composed of 53 amino acids”, which “ED50 (cell proliferation)” value (starved one day, treated three days in serum free media) is on record?
A: Its value is “approximately 300 pg/ml”.

Q: And the “cell proliferation ratio versus untreated controls” value (three days, serum free media)?
A: The value was “higher cell proliferation ratios than the untreated controls”.
